Results taken from the supplement of paper PMC10307832.

Assays:
Test in all cases: relative viability (nuclei count vs DMSO), 5 days (fraction); higher = more cells survive
Erlotinib + Lapatinib = compound: C#Cc1cccc(Nc2ncnc3cc(OCCOC)c(OCCOC)cc23)c1 [Erlotinib] + CS(=O)(=O)CCNCc1ccc(-c2ccc3ncnc(Nc4ccc(OCc5cccc(F)c5)c(Cl)c4)c3c2)o1 [Lapatinib] (partner 2 µM)
How it was run: (§1)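 Relative viability was taken as the ratio of nuclei in treated wells to nuclei in vehicle wells. Lung cancer cell lines in 1536-well plates received compounds by pin tool one day after seeding, either one drug alone or a fixed anchor-drug dose plus five library-drug doses (not always all listed) in √10 steps. Nuclei were counted on 4× images after 5 days of treatment, and values are medians of duplicate plates.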

AT9283 + Trametinib = compound: O=C(Nc1c[nH]nc1-c1nc2ccc(CN3CCOCC3)cc2[nH]1)NC1CC1 [AT9283] + CC(=O)Nc1cccc(-n2c(=O)n(C3CC3)c(=O)c3c(Nc4ccc(I)cc4F)n(C)c(=O)c(C)c32)c1 [Trametinib] (partner 0.02 µM)
How it was run: as §1

AT9283 + Tozasertib = compound: O=C(Nc1c[nH]nc1-c1nc2ccc(CN3CCOCC3)cc2[nH]1)NC1CC1 [AT9283] + Cc1cc(Nc2cc(N3CCN(C)CC3)nc(Sc3ccc(NC(=O)C4CC4)cc3)n2)n[nH]1 [Tozasertib] (partner 0.1 µM)
How it was run: as §1

AT9283 + Pemetrexed = compound: O=C(Nc1c[nH]nc1-c1nc2ccc(CN3CCOCC3)cc2[nH]1)NC1CC1 [AT9283] + Nc1nc2[nH]cc(CCc3ccc(C(=O)N[C@@H](CCC(=O)O)C(=O)O)cc3)c2c(=O)[nH]1 [Pemetrexed] (partner 0.2 µM)
How it was run: as §1

AT9283 + Foretinib = compound: O=C(Nc1c[nH]nc1-c1nc2ccc(CN3CCOCC3)cc2[nH]1)NC1CC1 [AT9283] + COc1cc2c(Oc3ccc(NC(=O)C4(C(=O)Nc5ccc(F)cc5)CC4)cc3F)ccnc2cc1OCCCN1CCOCC1 [Foretinib] (partner 0.25 µM)
How it was run: as §1

Cell Line	relative viability (Erlotinib + Lapatinib; first compound 0.2 µM)	relative viability (Erlotinib + Lapatinib; first compound 0.6325 µM)	relative viability (AT9283 + Trametinib; first compound 0.003 µM)	relative viability (AT9283 + Trametinib; first compound 0.03 µM)	relative viability (AT9283 + Trametinib; first compound 0.09487 µM)	relative viability (AT9283 + Trametinib; first compound 0.3 µM)	relative viability (AT9283 + Tozasertib; first compound 0.003 µM)	relative viability (AT9283 + Tozasertib; first compound 0.03 µM)	relative viability (AT9283 + Tozasertib; first compound 0.09487 µM)	relative viability (AT9283 + Tozasertib; first compound 0.3 µM)	relative viability (AT9283 + Pemetrexed; first compound 0.003 µM)	relative viability (AT9283 + Pemetrexed; first compound 0.03 µM)	relative viability (AT9283 + Pemetrexed; first compound 0.09487 µM)	relative viability (AT9283 + Pemetrexed; first compound 0.3 µM)	relative viability (AT9283 + Foretinib; first compound 0.003 µM)	relative viability (AT9283 + Foretinib; first compound 0.03 µM)	relative viability (AT9283 + Foretinib; first compound 0.09487 µM)	relative viability (AT9283 + Foretinib; first compound 0.3 µM)	relative viability (Erlotinib + Lapatinib; first compound 0.02 µM)	relative viability (Erlotinib + Lapatinib; first compound 2 µM)
NCI-H1975	0.885	0.908	0.323	0.777	0.337	0.234	0.728	0.664	0.58	0.311	0.295	0.282	0.27	0.276	0.947	0.949	0.82	0.326		
NCI-H1993	0.795	0.698	0.541	0.529	0.445	0.433	0.6	0.571	0.611	0.491	0.565	0.514	0.52	0.389	0.82	0.603	0.61	0.534	0.961	0.827
NCI-H2009	1.03	1.07	0.346	0.267	0.17	0.0856	0.737	0.514	0.399	0.226	1.03	0.983	0.713	0.243	1.29	1.07	0.438	0.29	0.971	0.889
NCI-H2023	0.651	0.965	0.572	0.604	0.227	0.119	0.388	0.232	0.19	0.18	0.214	0.199	0.126	0.102	0.739	0.86	0.301	0.108	0.737	
NCI-H2085	0.74	0.845	0.532	0.453	0.395	0.318	0.835	0.832	0.5	0.387	0.959	0.9	0.537	0.441	1.1	0.736	0.51	0.338	0.775	
NCI-H2087	1.15	1.16	0.176	0.096	0.124	0.107	0.24	0.192	0.189	0.148	0.664	0.586	0.261	0.183	1.03	0.388	0.195	0.132	0.996	0.921
NCI-H2126	0.763	0.788	0.573	0.566	0.38	0.293	0.788	0.506	0.341	0.313	0.684	0.693	0.559	0.358	1.2	1.18	0.652	0.447	0.771	0.727
NCI-H2170	0.264	0.293	0.958	0.747	0.268	0.159	0.748	0.276	0.164	0.157	0.464	0.234	0.2	0.132	1.06	0.897	0.261	0.21	0.283	0.24
